# Measured values published in patent US7893027B2, “Treatment of ocular wounds and ulcers” (The Board of Regents of the University of Oklahoma, priority 2002, dated 2011).
# What was measured:
# Assay type in all cases: cell-based, human
# [1] = system: CAP37 protein in stromal keratocytes; experiment: Immunocytochemical detection of CAP37 protein induction in stromal keratocytes
# Method: (§1) For immunocytochemical analysis of HCEC and stromal keratocytes in culture, the cells were cultured on coverslips (CORNING COSTAR, Acton, Mass.) placed within 24-well tissue culture plates (CORNING COSTAR) until they reached 70% confluence and immunostained for CAP37 as described above except for the following changes. Cells were fixed in formol-acetone, pH 7.4 for 60 s at 4° C. (13) and were stained using the mouse anti-human CAP37 antiserum (1:500 dilution).
# (§2) To determine if pro-inflammatory cytokines could induce CAP37 in HCEC and keratocytes we treated these cell cultures with TNF-α (0-10 ng/ml, Boehringer-Mannheim, Indianapolis, Ind.) and IL-1β (0-20 ng/ml, ENDOGEN, Woburn, Mass.) for 0-24 hr and assayed the cells immunocytochemically for the presence of CAP37 protein as described above. Untreated cell cultures were included for each test sample. In addition to protein detection, upregulation of CAP37 mRNA in response to TNF-α and IL-1β was measured by RT-PCR as described below.
# CAP37 protein in HCEC = experiment: Immunocytochemical detection of CAP37 protein induction in HCEC; conditions: for Time of maximum CAP37 protein induction: HCEC
# Method: as §1, §2
# CAP37 mRNA in HCEC = experiment: RT-PCR of CAP37 mRNA induction in HCEC
# Method: as §2
# Cultured HCEC were treated with 5 ng/ml TNF-α and 10 ng/ml IL-1β for 0-8 hr at 37° C. Total cellular RNA was isolated from untreated and treated HCEC according to vendor specifications (TRIzol™, Gibco BRL). After reverse-transcription of 5 μg of total RNA by random oligonucleotide priming (hexanucleotide mix, BOEHRINGER-MANNHEIM, GmbH, Germany), the resulting single stranded cDNA was amplified by PCR (PERKIN ELMER 2400 thermocycler, Norwalk, Conn.) using CAP37 specific primers ([…] (SEQ ID NO:9) and […] (SEQ ID NO:10)) designed for a 597 bp internal fragment of HL60-CAP37 (34). The reaction conditions for reverse transcription were 80 units of RNAse inhibitor (SIGMA), 8 μl of 5× strand buffer, 2 μl of random hexanucleotide mix, 1 mM dNTPs (GIBCO BRL), 10 mM DTT (GIBCO BRL), and 400 units of M-MLV RT (GIBCO BRL) in a total volume of […]. The reaction mix was incubated at 37° C. for 50 min followed by incubation at 70° C. for 15 min. The PCR mix (1.5 mM MgCl2, 0.2 mM dNTPs, 1.26 μM of each primer and 1 unit Taq polymerase, GIBCO BRL) was amplified for 30 cycles. Amplified DNA fragments were separated by electrophoresis on a 1% agarose gel and visualized by exposure to UV after ethidium bromide (0.5 μg/ml) staining. To assess the integrity of the cDNA, primers for human β-actin were used.
# PECAM-1 (CD31) = experiment: Flow cytometry of PECAM-1 expression on HCEC; conditions: TNF-α control, after 12 hr
# Method: Flow cytometry was used to assess the upregulation of PECAM-1 (CD31), and the integrin molecules β1 (CD29), β2 (CD18), β3 (CD61), β4 (CD104), α1 (CD49a), α2 (CD49b), α3 (CD49c), α4 (CD 49d), and αv (CD51). Human corneal epithelial cells were cultured as above and treated with CAP37 (0-2000 ng/ml) for 0-72 hr. A corresponding culture was left untreated at each time point. Following treatment with CAP37, cells were detached with 0.25% trypsin in 1 mM EDTA (pH 7.4, FISHER SCIENTIFIC, Pittsburgh, Pa.), washed twice in PBS and fixed with 0.125% paraformaldehyde (J.T. BAKER, Phillipsburg, N.J.) overnight at 4° C. The cells were washed in PBS and then incubated in 0.5% normal goat serum and 0.5% bovine serum albumin (BSA) in PBS for 30 min to block non-specific binding sites. Cells were incubated in the primary antibody (at concentrations described below) at 4° C. for 1 hr followed by the secondary antibody (FITC-goat anti-mouse IgG, PHARMINGEN, San Diego, Calif.) at 0.5 μg/10^6 cells and incubated at 4° C. for 30 min. The isotype control for these studies was FITC-labeled mouse isotype IgG1 (PHARMINGEN). The cells were analyzed by flow cytometry (FACS Calibur, BECTON DICKINSON, San Jose, Calif.). At least ten thousand cells were analyzed for each sample. […]
Substance,Induction of CAP37 protein [1],Time of maximum CAP37 protein induction (CAP37 protein in HCEC),Earliest detection of CAP37 protein (CAP37 protein in HCEC; HCEC treated with TNF-α),Earliest expression of CAP37 mRNA (CAP37 mRNA in HCEC; TNF-α 5 ng/ml),"Time of maximum CAP37 mRNA levels (CAP37 mRNA in HCEC; TNF-α 5 ng/ml, reduced by 4 hr)",Duration of effect on PECAM-1 expression (PECAM-1 (CD31)),Time point at which expression of CAP37 protein was observed (CAP37 protein in HCEC; HCEC treated with IL-1β),Initial expression of CAP37 mRNA post stimulation (CAP37 mRNA in HCEC; IL-1β 10 ng/ml),"CAP37 mRNA (CAP37 mRNA in HCEC; IL-1β 10 ng/ml, 6 hr)"
TNF-α,showed the induction of CAP37 protein,24 h,60 min,15 min,between 30 min and 2 hr,"more sustained, lasting until 24 hr",,,
IL-1β: proinflammatory cytokine used to induce CAP37,showed the induction of CAP37 protein,24 h,,,,,4 h,1 h,can be detected
